Like-named read-outs stand apart in the source and are kept apart here.
Experiments:
[1] = Rat IV and PO pharmacokinetic studies; conditions: male, Sprague-Dawley, in vivo; for clearance: iv, 1 mg/kg, CL, iv dosing at 1 mg/kg; for AUC(0-t): po, 5 mg/kg, AUC 24 h, oral dosing at 5 mg/kg
Experimental: Rat Pharmacokinetic Studies: For the IV and PO pharmacokinetic studies of compounds in rats, the compound was dissolved in PEG-400/ethanol (90/10) as a solution. Rat. Male Sprague-Dawley rats (300-350 g, Hilltop Lab Animals, Inc., Scottdale, Pa.) with cannulas implanted in the jugular vein were used. The rats were fasted overnight in the PO pharmacokinetic studies. Blood samples of 0.3 ml were collected from the jugular vein in EDTA-containing microtainer tubes (Becton Dickinson, Franklin Lakes, N. J.), and centrifuged to separate plasma. In the IV study, the test compound was delivered at 1 mg/kg as a bolus over 0.5 min (n=3). […] Quantitation of Compounds in Plasma. […] The resulting supernates were separated from the precipitated proteins by centrifugation for 10 minutes and transferred to autosampler vials. Samples were either prepared manually, or with the use of the Tomtec automated liquid handler. An aliquot of 5 μL was injected for analysis. The HPLC system consisted of two Shimadzu LC10AD pumps (Columbia, Md.), a Shimadzu SIL-HTC autosampler (Columbia, Md.), and a Hewlett Packard Series 1100 column compartment (Palo Alto, Calif.). The column was a YMC Pro C18 (2.0×50 mm, 3 μm particles, Waters Co., Milford, Mass.), maintained at 60° C. and a flow rate of 0.3 ml/min. The mobile phase consisted of 10 mM ammonium formate and 0.1% formic acid in water (A) and 100% 10 mM ammonium formate and 0.1% formic acid in methanol (B). […] The mobile phase was then returned to initial conditions and the column re-equilibrated for 1 minute. Total analysis time was 4 minutes. The HPLC was interfaced to a Micromass Quattro LC. Ultra high purity nitrogen was used as the nebulizing and desolvation gas at flow rates of 100 L/hr for nebulization and 1100 L/hr for desolvation. The desolvation temperature was 300° C. and the source temperature was 150° C. Data acquisition utilized selected reaction monitoring (SRM). Ions representing the (M+H)^+ species for the compound and the internal standard were selected in MS 1 and collisionally dissociated with argon at a pressure of 2×10^−3 torr to form specific product ions which were subsequently monitored by MS2.
For accuracy, the determined measure of viral inhibition is an EC50; but the minimum plasma concentrations which should be maintained in a patient is generally believed to be at least four or five fold higher. […] Lower is better. • 4) Estimating potential exposure in man by measuring parameters such as AUC and rate of clearance by oral and iv dosing in rats. High exposure and low clearance was desired.
The rat model is an initial model used to assess potential for exposure in man.

[2] = Metabolic stability in pooled human liver microsomes (HLM); conditions: pooled human liver microsomes, 3 μM drug; Low/Intermediate/High
Procedure, shortened: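 Pooled human liver microsomes (0.9 mg/ml final) in 0.1 M potassium phosphate pH 7.4 with 0.033 mM MgCl2 and an NADPH-regenerating system. Compound pre-incubated 2 min, reaction started with cofactors, run 10 min at 37° C, quenched in acetonitrile and analysed by LC/MS.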

HeLa cells = test: Cytotoxicity assay in HeLa cells (MTT dye reduction, CC50); conditions: cytotoxicity; Yes = CC50 above 100 uM, No = not
Procedure, shortened: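 HeLa cells expressing CD4 and CCR5, grown in DMEM with 10% FBS, were used for cytotoxicity testing by MTT dye reduction; the text gives no further cytotoxicity conditions. The parallel antiviral assay exposed the same cells to compound at final <10 μM for 72 h.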

HIV-1 = HIV-1 single-round infectious luciferase reporter virus (pseudotype) assay in HeLa CD4 CCR5 cells; type: cell-based
Procedure, shortened: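 Reporter pseudovirus produced in 293 cells infected HeLa cells expressing CD4/CCR5 at MOI ~0.01, with compound present at <10 μM final. Infection was quantified as luciferase luminescence after 72 h.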

[3] = Human immunodeficiency virus 1, HeLa-CD4/CCR5, read-out: EC50 Group from Table 1, Table 2-1, HeLa CD4 CCR5 cells, single-round luciferase reporter virus
[4] = Human immunodeficiency virus 1, HeLa-CD4/CCR5, read-out: EC50 category, HIV-1 single-round reporter virus assay, category 1/2/3 per Table A1 key
[5] = Human immunodeficiency virus 1, HeLa-CD4/CCR5, read-out: EC50 Group from TABLE 1, HeLa CD4 CCR5 cells, single-round infectious luciferase reporter virus
[6] = Human immunodeficiency virus 1, HeLa-CD4/CCR5, 72 h, read-out: EC50 Group from Table 1, HeLa CD4 CCR5 cells, luciferase reporter virus, harvested 72 h after infection

## COc1cnc(-n2cc(C)nn2)c2[nH]cc(C(=O)C(=O)N3CCN(C(=O)c4ccccc4)[C@H](C)C3)c12 [Example 326]
[1]
  clearance: 8.3 mL/min/kg
  AUC(0-t): 9.8 ± 2.9 µg·h/mL
[2]
  HLM predicted human clearance class: Low (0-0.100)
HeLa cells
  CC50 > 100 uM: Yes
HIV-1; [3]
  EC50: < 1000 nM
HIV-1; [4]
  EC50: < 0.2 nM

## COc1cnc(-n2ccnc2)c2[nH]cc(C(=O)C(=O)N3CCN(C(=O)c4ccccc4)CC3)c12 [Example 193, 1-benzoyl-4-[(4-methoxy-7-(1-imidazolyl)-6-azaindol-3-yl)-oxoacetyl]piperazine]
[1]
  clearance: 4.5 ± 0.4 mL/min/kg
  AUC(0-t): 14 ± 8 µg·h/mL
[2]
  HLM predicted human clearance class: Low (0-0.100)
HeLa cells
  CC50 > 100 uM: No
HIV-1; [5]
  EC50: < 1000 nM
HIV-1; [4]
  EC50: < 0.2 nM

## C[C@@H]1CN(C(=O)C(=O)c2c[nH]c3c(-n4nccn4)ccnc23)CCN1C(=O)c1ccccc1 [Example 355]
[1]
  clearance: 13.9 ± 5.3 mL/min/kg
  AUC(0-t): 3.3 ± 0.77 µg·h/mL
[2]
  HLM predicted human clearance class: Low (0-0.100)
HeLa cells
  CC50 > 100 uM: Yes
HIV-1; [6]
  EC50: < 1000 nM
HIV-1; [4]
  EC50: 0.2 to 1000 nM

## O=C(C(=O)N1CCN(C(=O)c2ccccc2)CC1)c1c[nH]c2c(-c3ncco3)ccnc12 [Example 204]
[1]
  clearance: 10 ± 1.3 mL/min/kg
  AUC(0-t): 12 ± 1.4 µg·h/mL
[2]
  HLM predicted human clearance class: Low (0-0.100)
HeLa cells
  CC50 > 100 uM: Yes
HIV-1; Human immunodeficiency virus 1, HeLa-CD4/CCR5, read-out: EC50 Group from Table 1, Table 4, HeLa CD4 CCR5 cells, single-round luciferase reporter virus
  EC50: < 1000 nM
HIV-1; [4]
  EC50: 0.2 to 1000 nM

## COc1cnc(-n2ccc(CO)n2)c2[nH]cc(C(=O)C(=O)N3CCN(C(=O)c4ccccc4)[C@H](C)C3)c12 [Example 236, (R)-1-benzoyl-2-methyl-4-[(4-methoxy-7-(3-hydroxylmethyl-pyrazol-1-yl)-6-azaindol-3-yl)-oxoacetyl]piperazine]
[1]
  clearance: 29 ± 6.7 mL/min/kg
  AUC(0-t): 0.56 ± 0.25 µg·h/mL
[2]
  HLM predicted human clearance class: Low (0-0.100)
HeLa cells
  CC50 > 100 uM: Yes
HIV-1; [3]
  EC50: < 1000 nM
HIV-1; [4]
  EC50: < 0.2 nM

## COc1cnc(-n2ccc(C)n2)c2[nH]cc(C(=O)C(=O)N3CCN(C(=O)c4ccccc4)CC3)c12 [Example 190, 1-benzoyl-4-[(4-methoxy-7-(3-methyl-pyrazol-1-yl)-6-azaindol-3-yl)-oxoacetyl]piperazine]
[1]
  clearance: 3.7 ± 1 mL/min/kg
  AUC(0-t): 7.4 ± 3.4 µg·h/mL
[2]
  HLM predicted human clearance class: Low (0-0.100)
HeLa cells
  CC50 > 100 uM: Yes
HIV-1; [5]
  EC50: < 1000 nM
HIV-1; [4]
  EC50: < 0.2 nM

## COc1cnc(-c2cnc(N)cn2)c2[nH]cc(C(=O)C(=O)N3CCN(C(=O)c4ccccc4)[C@H](C)C3)c12 [Example 266]
[1]
  clearance: 37.4 ± 3.2 mL/min/kg
  AUC(0-t): 0.16 ± 0.04 µg·h/mL
[2]
  HLM predicted human clearance class: Low (0-0.100)
HeLa cells
  CC50 > 100 uM: Yes
HIV-1; [3]
  EC50: < 1000 nM
HIV-1; [4]
  EC50: < 0.2 nM

## C[C@@H]1CN(C(=O)C(=O)c2c[nH]c3c(-c4nccs4)ccnc23)CCN1C(=O)c1ccccc1 [Example 354]
[1]
  clearance: 11.2 ± 0.8 mL/min/kg
  AUC(0-t): 1.26 µg·h/mL
[2]
  HLM predicted human clearance class: Low (0-0.100)
HeLa cells
  CC50 > 100 uM: Yes
HIV-1; [6]
  EC50: < 1000 nM
HIV-1; [4]
  EC50: 0.2 to 1000 nM

## COc1cnc(-n2cncn2)c2[nH]cc(C(=O)C(=O)N3CCN(C(=O)c4ccccc4)[C@H](C)C3)c12 [Example 245, (R)-1-benzoyl-2-methyl-4-[(4-methoxy-7-(1,2,4-triazol-1-yl)-6-azaindol-3-yl)-oxoacetyl]piperazine]
[1]
  clearance: 5.6 ± 1.8 mL/min/kg
  AUC(0-t): 12.1 ± 1.3 µg·h/mL
[2]
  HLM predicted human clearance class: Low (0-0.100)
HeLa cells
  CC50 > 100 uM: Yes
HIV-1; [3]
  EC50: < 1000 nM
HIV-1; [4]
  EC50: < 0.2 nM

## Cc1ccn(-c2ncc(F)c3c(C(=O)C(=O)N4CCN(C(=O)c5ccccc5)CC4)c[nH]c23)n1 [Example 310]
[1]
  clearance: 16.5 ± 3.3 mL/min/kg
  AUC(0-t): 2.1 ± 0.4 µg·h/mL
[2]
  HLM predicted human clearance class: Low (0-0.100)
HeLa cells
  CC50 > 100 uM: Yes
HIV-1; [5]
  EC50: < 1000 nM
HIV-1; [4]
  EC50: < 0.2 nM

## CCc1ncn(-c2ncc(OC)c3c(C(=O)C(=O)N4CCN(C(=O)c5ccccc5)[C@H](C)C4)c[nH]c23)n1 [Example 322]
[1]
  clearance: 1.8 ± 0.4 mL/min/kg
  AUC(0-t): 82 ± 23 µg·h/mL
[2]
  HLM predicted human clearance class: Low (0-0.100)
HeLa cells
  CC50 > 100 uM: Yes
HIV-1; [3]
  EC50: < 1000 nM
HIV-1; [4]
  EC50: < 0.2 nM

## COc1cnc(-n2cnc(C)n2)c2[nH]cc(C(=O)C(=O)N3CCN(C(=O)c4ccccc4)[C@H](C)C3)c12 [Example 317]
[1]
  clearance: 1.9 ± 0.26 mL/min/kg
  AUC(0-t): 43 ± 12 µg·h/mL
[2]
  HLM predicted human clearance class: Low (0-0.100)
HeLa cells
  CC50 > 100 uM: Yes
HIV-1; [3]
  EC50: < 1000 nM
HIV-1; [4]
  EC50: < 0.2 nM

## C[C@@H]1CN(C(=O)C(=O)c2c[nH]c3c(-c4ncco4)ccnc23)CCN1C(=O)c1ccccc1 [Example 353]
[1]
  clearance: 5.6 ± 1.1 mL/min/kg
  AUC(0-t): 1360 ± 307 µg·h/mL
[2]
  HLM predicted human clearance class: Low (0-0.100)
HeLa cells
  CC50 > 100 uM: Yes
HIV-1; [6]
  EC50: < 1000 nM
HIV-1; [4]
  EC50: 0.2 to 1000 nM

From patent publication US20050090522A1 (priority 2001, published 2005)
